Where two headings read alike, the source gives them in different places.
Tests used:
BRL cells = assay: Cell viability by CCK-8 assay in BRL cells; format: cell-based; conditions: Rattus norvegicus
Protocol: The cell viability (%) of the isolated diterpenoid alkaloids in the concentration range of 1–500 μM and the time-effectiveness of them for 24 h and 48 h were evaluated using CCK-8 assay (Figure 4). […] The IC50 values of 15 compounds and positive drug were calculated by SPSS 23.0 software. […] Therefore, through the entire experiments, the maximum concentration of tested diterpenoid alkaloids was limited to 10 μM, a concentration about one-tenth to one-fiftieth of IC50 of them. In addition, optimum dosage of modeling agent (FFA) was also selected as the concentration of 0.5 mM through CCK-8 assay (Figure S77).
Buffalo rat liver (BRL) cells were obtained from the Cell Bank, Committee for Typical Culture Preservation, Chinese Academy of Sciences. BRL cells were cultured in DMEM (containing 10% fetal bovine serum and 1% penicillin/streptomycin) under humidified 5% CO2 (v/v) atmosphere at 37 °C. To determine the cell viability of compounds 1–15, the CCK-8 assay was performed. The fifteen isolated compounds were dissolved in DMSO and diluted 1:1000 in culture medium, respectively. Cells were seeded in 96-well plates (6 × 10^3 cells per well) for 24 h incubation and then treatment with different concentrations (1, 10, 20, 50, 100, 200, and 500 µM) of each compound for 24 h or 48 h, respectively. CCK-8 solution (10% of the total solution) was added to each well, further incubated for 1 h at 37 °C. The absorbance was measured at 450 nm using a Multimode Microplate Reader.

FFA-induced BRL cells [1] = format: cell-based, rat; conditions: for TG level (TG secretion, lipid accumulation): 10 μM, 24 h, vs. model group; for TG level (TG secretion, lipid accumulation) / TC level / TG level / ALT level / AST level: 0.5 mM FFA-induced BRL cells; for TC level / TG level / ALT level / AST level: 1, 5 or 10 µM; for ALT level / AST level: medium; for inhibitory effects on hepatocytes lipid accumulation: FFA-induced BRL cells, 1, 5 and 10 µM
Protocol: We selected FFA-induced BRL cells (oleate and palmitate ratio was 2:1) to establish a cellular NAFLD model, which is a widely used method by researchers for studying diseases related to hepatocytes lipid accumulation. The TG secretion was measured to preliminarily evaluate the inhibitory effect on lipid accumulation of 15 isolated alkaloid compounds. […] Compounds 1–15 were tested at a concentration of 10 μM in FFA-induced BRL cells to determine their inhibitory effects on hepatocytes TG secretion (Figure 5). Atorvastatin calcium (ATC) is a statin cholesterol-lowering drug and widely used in the clinical treatment of hyperlipidemia and NAFLD, etc.. Therefore, we used atorvastatin calcium (ATC, 10 µM) as a positive control drug.
BRL cells were grown in 24-well plates until 70–80% confluence. Subsequently, 0.5 mM FFA (oleate and palmitate in a final ratio of 2:1) was applied for 24 h to establish an in vitro model of hepatocytes lipid accumulation in the model group, treated with 0.5 mM FFA combination with 1, 5, or 10 µM isolated compounds for 24 h in alkaloids groups. A portion of 1% bovine serum albumin (BSA) was added in BRL cells of the control group. Then, the medium of each group was collected for determination of ALT and AST levels by commercial kits. After removing the medium, 200 µL of 0.25% trypsin was added to digest the cells in 37 °C for 2 min. Then, 500 µL of DMEM that contained 10% fetal bovine serum (FBS) was added to stop digesting. Cells suspension was centrifuged at 800 r/min for 3 min. After adding 200 µL of ethanol, cells were collected and crushed by ultrasonic cell disruptor at 4 °C. Part of the cell fragmentation solution was used for the determination of cell protein content, the other part was used to determine TG and TC levels by commercial kits according to the manufacturer’s instruction.

FFA-induced BRL cells [2] = assay: Oil red O staining of lipid droplets and quantitative analysis in FFA-induced BRL cells; format: cell-based, rat; conditions: 10 µM, 0.5 mM FFA-induced BRL cells; for fold change of red-stained cell area (quantitative analysis of lipid accumulation): ImageJ, p < 0.001 vs. model group; for lipid accumulation by oil red O staining: vs. model group
Protocol: Combined with the oil red O staining and quantitative analysis assay, the effect of reducing lipid accumulation of compounds 4, 5, 7, 8, and 12 was performed in FFA-induced BRL cells. […] Quantitative analysis of lipid accumulation was also analyzed by ImageJ 1.8.0 software by calculating the area of red-stained cells (Figure 7C).
BRL cells were plated in 96-well plates until reaching 70–80% confluence and treated with 0.5 mM FFA mixture and the tested compounds for 24 h. Controls were incubated for the same period in complete medium.
After 24 h of incubation, the cells were fixed with 5% formalin solution for 30 min and then incubated with oil red O working solution for 15 min at room temperature. After that, the cells were washed once with 60% isopropanol and three times with water. The nuclei were stained with hematoxylin solution for 2 min at room temperature. Then, the operation of oil red O staining was referred to the previous research. Finally, the red oil droplets were observed using an optical microscope.

FFA-induced HepG2 cells [3] = assay: Oil red O staining in FFA-induced HepG2 cells; format: cell-based; conditions: 10 µM, 1 mM FFA-induced HepG2 cells
Protocol: Figure S79. Oil red O staining of lipid droplets and quantitative analysis in HepG2 cells treated with or without 1 mM FFA mixed compounds 4, 5, 7, 8, and 12 (10 µM), 400 ×; The images shown about quantitative analysis s of red stained cells are representatives of 3 replicates of each. The values are presented as mean ± SEM. ### p < 0.001, vs. the control group; * p < 0.05, ** p < 0.01, vs. the model group. […]

FFA-induced HepG2 cells [4] = assay: TG secretion assay in FFA-induced HepG2 cells; format: cell-based; conditions: 10 µM, 1 mM FFA-induced HepG2 cells
Protocol: Figure S78. Effects of compounds (4, 5, 7, 8, and 12) on TG level in FFA-induced HepG2 cells. HepG2 cells were treated with a mixture of 1 mM FFA in the absence o r presence of compounds (4, 5, 7, 8, and 12) at the concentration of 10 µM. The values are presented as mean ± SEM of six independent experiments. ### p < 0.001, vs. the control group; * p < 0.05, ** p < 0.01, vs. the model group. […]

[5] = BRL cells, CCK-8 assay, concentration range 1–500 μM, incubation time (24 h or 48 h) not stated, read-out: IC50

CCN1CC2(COC)CCC(O)C34C5CC6C(OC)CC7(OCOC7(C(OC)C23)C14)C5C6O (stereo not shown) [Compound 8, delbrunine]
IC50 (BRL cells; [5]): 408 µM | TG level (TG secretion, lipid accumulation) (FFA-induced BRL cells [1]): better than that of the positive control drug | TC level (FFA-induced BRL cells [1]): ameliorated | TG level (FFA-induced BRL cells [1]): ameliorated | ALT level (FFA-induced BRL cells [1]): ameliorated | AST level (FFA-induced BRL cells [1]): ameliorated | inhibitory effects on hepatocytes lipid accumulation (FFA-induced BRL cells [1]): strong inhibitory effects on hepatocytes lipid accumulation in a dose-dependent manner | fold change of red-stained cell area (quantitative analysis of lipid accumulation) (FFA-induced BRL cells [2]): less than the model group | lipid accumulation by oil red O staining (FFA-induced BRL cells [2]): significantly reduce lipid accumulation | lipid accumulation by oil red O evaluation (FFA-induced HepG2 cells [3]): good inhibitory effects on lipid accumulation | lipid accumulation by TG secretion assay (FFA-induced HepG2 cells [4]): good inhibitory effects on lipid accumulation

CCN1C[C@]2(COC(=O)c3ccccc3N)CC[C@H](OC)[C@]34C1[C@](O)([C@@H](OC)[C@H]23)[C@@]1(O)C[C@H](OC)[C@H]2C[C@@H]4[C@@H]1[C@H]2OC [Compound 11, anthranoyllycoctonine]
IC50 (BRL cells; [5]): 300 to 500 µM

CCN1CC2(COC(=O)c3ccccc3NC(=O)CC(C)C(=O)O)CCC(OC)C34C5CC6C(OC)CC(O)(C5C6OC)C(O)(C(OC)C23)C14 (stereo not shown) [Compound 15, delavaine B]
IC50 (BRL cells): > 500 µM | TG level (TG secretion, lipid accumulation) (FFA-induced BRL cells [1]): had the effect of inhibiting the lipid accumulation (TG secretion)

CCN1CC2(COC(=O)c3ccccc3NC(=O)C(C)CC(=O)O)CCC(OC)C34C5CC6C(OC)CC(O)(C5C6OC)C(O)(C(OC)C23)C14 (stereo not shown) [Compound 14, shawurensine]
IC50 (BRL cells): > 500 µM | TG level (TG secretion, lipid accumulation) (FFA-induced BRL cells [1]): had the effect of inhibiting the lipid accumulation (TG secretion)

CCN1CC2(COC)CCC(OC)C34C5CC6C(OC)CC7(OCOC7(C(OC)C23)C14)C5C6O (stereo not shown) [Compound 5, delbruline]
IC50 (BRL cells; [5]): > 500 µM | TG level (TG secretion, lipid accumulation) (FFA-induced BRL cells [1]): better than that of the positive control drug | TC level (FFA-induced BRL cells [1]): ameliorated | TG level (FFA-induced BRL cells [1]): ameliorated | ALT level (FFA-induced BRL cells [1]): ameliorated | AST level (FFA-induced BRL cells [1]): ameliorated | inhibitory effects on hepatocytes lipid accumulation (FFA-induced BRL cells [1]): strong inhibitory effects on hepatocytes lipid accumulation in a dose-dependent manner | fold change of red-stained cell area (quantitative analysis of lipid accumulation) (FFA-induced BRL cells [2]): less than the model group | lipid accumulation by oil red O staining (FFA-induced BRL cells [2]): significantly reduce lipid accumulation | lipid accumulation by oil red O evaluation (FFA-induced HepG2 cells [3]): good inhibitory effects on lipid accumulation | lipid accumulation by TG secretion assay (FFA-induced HepG2 cells [4]): good inhibitory effects on lipid accumulation

CCN1C[C@]2(C)CC[C@H](OC)[C@@]34C1[C@@]1(OCO[C@@]15C[C@H](OC)[C@H]1C[C@@H]3[C@@H]5[C@H]1O)[C@@H](O)[C@H]24 [Compound 6, delpheline]
IC50 (BRL cells): > 500 µM

CCN1CC2(COC)CCC(O)C34C5CC6C(OC)CC7(OCOC7(C(O)C23)C14)C5C6OC (stereo not shown) [Compound 10, uraphine]
IC50 (BRL cells): > 500 µM

CC(C)c1c(C(=O)Nc2ccccc2)c(-c2ccccc2)c(-c2ccc(F)cc2)n1CC[C@@H](O)C[C@@H](O)CC(=O)O [positive (ATC), Atorvastatin calcium, reference compound]
IC50 (BRL cells; [5]): 88.4 µM

CCN1C[C@]2(CO)CC[C@H](OC)[C@@]34[C@@H]5C[C@H]6[C@H](OC)[C@@H]5[C@](O)(C[C@@H]6OC)[C@](O)([C@@H](OC)[C@H]23)[C@@H]14 [Compound 7, lycoctonine]
IC50 (BRL cells; [5]): > 500 µM | TG level (TG secretion, lipid accumulation) (FFA-induced BRL cells [1]): better than that of the positive control drug | TC level (FFA-induced BRL cells [1]): ameliorated | TG level (FFA-induced BRL cells [1]): ameliorated | ALT level (FFA-induced BRL cells [1]): ameliorated | AST level (FFA-induced BRL cells [1]): ameliorated | inhibitory effects on hepatocytes lipid accumulation (FFA-induced BRL cells [1]): strong inhibitory effects on hepatocytes lipid accumulation in a dose-dependent manner | fold change of red-stained cell area (quantitative analysis of lipid accumulation) (FFA-induced BRL cells [2]): less than the model group | lipid accumulation by oil red O staining (FFA-induced BRL cells [2]): significantly reduce lipid accumulation | lipid accumulation by oil red O evaluation (FFA-induced HepG2 cells [3]): good inhibitory effects on lipid accumulation | lipid accumulation by TG secretion assay (FFA-induced HepG2 cells [4]): good inhibitory effects on lipid accumulation

CCN1CC2(COC)CCC(O)C34C5CC6C(OC)CC(O)(C5C6O)C(O)(C(OC)C23)C14 (stereo not shown) [Compound 9, delcosine]
IC50 (BRL cells): > 500 µM

CCN1CC2(COC)CCC(OC)C34C5CC6C(OC)CC(O)(C5C6O)C(O)(C(OC)C23)C14 (stereo not shown) [Compound 13, browniine]
IC50 (BRL cells): > 500 µM

From paper PMC9000738, “Diterpenoid Alkaloids Isolated from Delphinium brunonianum and Their Inhibitory Effects on Hepatocytes Lipid Accumulation” (Molecules, 2022)
